This is an account of results in PubChem BioAssay AID1996.

Converted amounts (≈) assume the structure as drawn.

For the series the following is noted: buffer; pH 7.4; 200.0 µM.
One may read the kinetic solubility as the concentration staying in solution when a stock, usually in DMSO, is diluted into the medium. With `CCC1(C)NC(=O)N(CC(=O)Nc2cc(C)on2)C1=O` (stereo not drawn), the solubility (kinetic) was > 0.042 mg/mL. As for `NCCCNC(=O)c1ccc(/C=N/O)nc1`, the figure is > 0.0333 mg/mL; as for `COc1ccccc1NC(=O)NC1(C(=O)N2CCCCC2)CCCCC1`, 0.01 mg/mL (≈ 27.8 µM). As for `NS(=O)(=O)c1ccc(CCNC(=S)NC(=O)c2ccccc2Br)cc1`, the figure is 0.0033 mg/mL (≈ 7.46 µM); as for `COc1cnc(-c2ccccn2)nc1N(C)c1ccccc1`, 0.0397 mg/mL (≈ 136 µM); as for `COc1cccc(C(=O)NCc2ccco2)c1OC`, > 0.0392 mg/mL. The same measure for `Nc1c(Br)c(=O)[nH]c(=O)n1-c1ccc(F)cc1`: 0.0253 mg/mL (≈ 84.3 µM); for `Cc1[nH]c(C)c(C(=O)/C=C/c2ccc([N+](=O)[O-])cc2)c1C`: 0.0029 mg/mL (≈ 10.2 µM); for `CC(c1ccccc1)n1cnc2ccccc2c1=O` (stereo not drawn): > 0.0375 mg/mL. Take `N#Cc1cccnc1N1CCC(C(N)=O)CC1`: the solubility (kinetic) was > 0.0345 mg/mL. As for `Nc1nc(-c2ccc3c(c2)OCCO3)c(CC(=O)O)s1`, the figure is 0.0411 mg/mL (≈ 141 µM); as for `O=c1[nH]c2ccsc2c(=O)n1CCO`, > 0.0318 mg/mL; as for `Cc1ccccc1NC(=S)N(Cc1cccs1)C1CCCC1`, 0.0133 mg/mL (≈ 40.2 µM). In turn, `Cc1ccc(NC(=S)N2CCCCC2)cc1C` showed a solubility (kinetic) of 0.0305 mg/mL (≈ 123 µM). As for `CC(C(=O)NC(C)(C)C)N1C(=O)c2cccc3cccc(c23)C1=O` (stereo not drawn), the figure is 0.0402 mg/mL (≈ 124 µM); as for `COc1ccc(NC(=O)CN2C(=O)COc3ccc(C)cc32)cc1`, 0.0033 mg/mL (≈ 10.1 µM).

Regarding `Br.COc1ccc(C(=O)CN2Cc3ccccc3C2=N)cc1`, the solubility (kinetic) was > 0.0542 mg/mL.

On to `COc1cccc(C(=O)Nc2ccc(NC(=O)C3CC3)nc2)c1`, for which the kinetic solubility turned out to be 0.0016 mg/mL (≈ 5.14 µM). The same measure for `CSc1nc(N)nc(N(C)C)n1`: 0.0243 mg/mL (≈ 131 µM); for `O=C1NC(=S)N/C1=C/c1cccnc1`: > 0.0308 mg/mL; for `CCCCn1c(CCCNC(=O)c2ccco2)nc2ccccc21`: > 0.0488 mg/mL. As for `O=C(NC(=O)c1ccccc1)Nc1ccccc1O`, the figure is 0.0021 mg/mL (≈ 8.19 µM).

`CC(=O)Nc1cccc(C(=O)OCC(=O)NC(=O)c2ccccc2)c1`: the solubility (kinetic) is 0.0035 mg/mL (≈ 10.3 µM). For the compound `CC(C)OC(=O)CSc1nc(C(C)C)nc2ccccc12`, the kinetic solubility was 0.0021 mg/mL (≈ 6.9 µM). This solubility kinetic lies about 1.7-fold lower than the previous one.

As for `CCn1c(SCc2ccc(F)cc2)nc2ccccc2c1=O`, the kinetic solubility turned out to be 0.0005 mg/mL (≈ 1.59 µM). As for `CSc1ncc(Sc2ccccc2)c(C(=O)O)n1`, the figure is 0.0384 mg/mL (≈ 138 µM). The same measure for `COc1ccc(C(=O)N2CCCC(Nc3ccc(C)c(C)c3)C2)cc1` (stereo not drawn): 0.0405 mg/mL (≈ 120 µM); for `CC(=O)c1ccc(N2CCN(C(=O)c3cccs3)CC2)c(F)c1`: > 0.0499 mg/mL. As for `O=C(Oc1c(-c2ccccc2)c(=O)n2c3c(cccc13)CC2)c1ccc(Cl)cc1`, the figure is < 0.0009 mg/mL. As to `Fc1ccc(-c2nc(-c3cccs3)no2)cc1`, the kinetic solubility was < 0.0003 mg/mL. As for `Cc1nc2ccccc2c(=O)n1-c1cccc(C(F)(F)F)c1`, the figure is 0.0436 mg/mL (≈ 143 µM); as for `CCC(=O)N1CCN(c2ccccc2NC(=O)c2ccc([N+](=O)[O-])o2)CC1`, 0.0324 mg/mL (≈ 87 µM). Regarding `CCOC(=O)CC(=O)CSc1nc(CC)c(C)cc1C#N`, the solubility (kinetic) was > 0.046 mg/mL. Regarding `O=C(O)CCC(CNS(=O)(=O)c1ccccc1)C(F)(F)F` (stereo not drawn), the kinetic solubility was > 0.0488 mg/mL. The same measure for `CCNC(=O)c1ccc(C23CC4CC(CC(C4)C2)C3)o1`: < 0.0006 mg/mL. `COc1ccc(NC(=S)Nc2ccc(OC(F)F)cc2)cn1`: the solubility (kinetic) is 0.035 mg/mL (≈ 108 µM).

With `COc1ccc(CNc2ccc3c(c2)CCC3)cc1Br`, the kinetic solubility worked out at 0.0056 mg/mL (≈ 16.9 µM). Take `CN(CC(=O)Nc1ccc(Cl)c(C(F)(F)F)c1)C(=O)c1cnccn1`: the solubility (kinetic) worked out at 0.0137 mg/mL (≈ 36.8 µM). On to `Cc1ccc(C(=O)Nc2sc3c(c2C(=O)O)CCCC3)o1`, for which the solubility (kinetic) is > 0.0458 mg/mL. The same measure for `CCOC(=O)CCn1c(=S)n(CCC(=O)OCC)c2ccccc21`: 0.0495 mg/mL (≈ 141 µM); for `CN(C)c1ccc(C(=O)C(=O)c2ccccc2)cc1`: 0.0108 mg/mL (≈ 42.6 µM); for `COCCNc1ncnc2c1[nH]c1ccccc12`: 0.0362 mg/mL (≈ 149 µM). With `N/C(=N\OC(=O)c1ccc(OCC(F)(F)F)nc1)c1ccc(Cl)cc1`, the kinetic solubility turned out to be 0.0012 mg/mL (≈ 3.21 µM).

For `CC(=O)c1cc2c(cc1NC(=O)CN(C)S(=O)(=O)c1cccs1)OCO2`, the solubility (kinetic) is 0.0064 mg/mL (≈ 16.1 µM).

Consider `CC(C)[C@H](NC(=O)c1ccccc1)C(=O)O`, for which the kinetic solubility is > 0.0332 mg/mL. The same measure for `NS(=O)(=O)c1ccc(NC(=O)COC(=O)Cc2c[nH]c3ccccc23)cc1`: 0.0378 mg/mL (≈ 97.6 µM).

Take `O=C(O)Cn1c(=O)c2c3c(sc2n(Cc2ccc(F)cc2)c1=O)CCCC3`: the kinetic solubility was > 0.0583 mg/mL. Consider `COc1ccccc1C(c1c(O)nc(SC)[nH]c1=O)c1c(O)nc(SC)[nH]c1=O`, for which the kinetic solubility was > 0.0652 mg/mL. In turn, `CCOC(=O)Cc1csc(NC(=O)COc2cccc(C)c2)n1` showed a kinetic solubility of 0.0084 mg/mL (≈ 25.1 µM).

For the compound `CCc1ccc2oc(C(=O)Nc3cccnc3)c(C)c2c1`, the solubility (kinetic) came out at 0.001 mg/mL (≈ 3.57 µM). Against the preceding compound, the solubility kinetic is about 8.4-fold lower. As for `Cc1ccc2c(c1)/C(=C/c1ccccc1F)C(=O)N2`, the figure is 0.0013 mg/mL (≈ 5.13 µM). As for `O=C(Nc1ccc2oc(=O)ccc2c1)c1ccc2ccccc2c1`, the figure is < 0.0007 mg/mL; as for `Cc1cccc(CC(=O)N2CCN(C(=O)c3ccco3)CC2)c1`, > 0.0469 mg/mL.

In turn, `COc1ccc(NC(=O)NCc2ccccc2F)cc1OC` showed a kinetic solubility of 0.0109 mg/mL (≈ 35.8 µM). `CNC(=S)N(CCCn1ccnc1)Cc1c(F)cccc1Cl` came in with a solubility (kinetic) of 0.049 mg/mL (≈ 144 µM). For `Nc1cccc(CN2CCCC2)c1`, the solubility (kinetic) was > 0.0264 mg/mL. As for `CCC(C)NC(=O)C(=O)NCC1CCCN1CC` (stereo not drawn), the figure is 0.0288 mg/mL (≈ 113 µM); as for `CS(=O)(=O)N1CCN=C1SCc1ccc(F)cc1`, > 0.0433 mg/mL. On to `NC(=O)C1CCN(c2oc(-c3cccs3)nc2S(=O)(=O)c2ccc(Br)cc2)CC1`, for which the kinetic solubility amounted to 0.0176 mg/mL (≈ 35.5 µM). As for `O=C(Nc1nccs1)C1CCCN1/C=C/C(=O)C(F)(F)F` (stereo not drawn), the figure is 0.0461 mg/mL (≈ 144 µM); as for `O=C1COc2ccc(N3C(=O)c4ccccc4C3=O)cc2N1`, 0.0019 mg/mL (≈ 6.46 µM); as for `O=C(OCC(=O)c1ccccc1Br)c1ccncc1`, > 0.048 mg/mL.

Take `O=C(Nc1ccc(CN2CCS(=O)(=O)CC2)cc1)c1ccc(F)cc1`: the solubility (kinetic) was 0.0299 mg/mL (≈ 82.5 µM).

`O=c1c2ccccc2nc(Cc2cccc([N+](=O)[O-])c2)n1-c1ccc(O)cc1` gave a solubility (kinetic) of 0.0478 mg/mL (≈ 128 µM). The same measure for `COc1ccc(-n2cc(-c3ccc(Br)cc3)[nH]c2=S)cc1`: < 0.0004 mg/mL; for `CC(C)OP(=O)(OC(C)C)C(Nc1ccc(C(=O)O)cc1)c1ccccc1` (stereo not drawn): > 0.0587 mg/mL; for `COc1ccc(N2CCOCC2)c(NC(=O)c2ccc3c(c2)OCO3)c1`: 0.0262 mg/mL (≈ 73.5 µM). The same measure for `CNc1nc(-c2ccc3c(c2)CCN3C(=O)CC(C)(C)C)c(C)s1`: 0.0175 mg/mL (≈ 50.9 µM); for `O=C(COC(=O)c1ccc2ccccc2c1O)NCC(F)(F)F`: 0.0025 mg/mL (≈ 7.64 µM); for `COc1cccc(C(=O)Nc2cc(C)nn2-c2ccccc2)c1OC`: > 0.0506 mg/mL. `COCc1c(C(=O)Nc2cccc(S(=O)(=O)N3CCCCC3)c2)oc2ccccc12` registered a kinetic solubility of 0.0031 mg/mL (≈ 7.23 µM). The same measure for `CCCCN(C(=O)C1CC1)C1CCS(=O)(=O)C1` (stereo not drawn): > 0.0389 mg/mL; for `CC(=O)N(C)c1ccc(NS(=O)(=O)c2cccc3nsnc23)cc1`: > 0.0544 mg/mL. With `Cc1cc(C)cc(C(=O)N2CCN(Cc3ccc4c(c3)OCO4)CC2)c1`, the kinetic solubility is > 0.0529 mg/mL. As for `CCOC(=O)c1c(O)c2ccccc2n(CC)c1=O`, the figure is > 0.0392 mg/mL; as for `Cc1cc(C)c(S(=O)(=O)NCc2ccccn2)cc1C`, > 0.0436 mg/mL. The same measure for `O=C(Nc1ccc(Cl)c(Cl)c1)N1CCOCC1`: > 0.0413 mg/mL; for `CCc1ccc(NC(=O)NCc2ccccn2)cc1`: > 0.0383 mg/mL; for `O=C(/C=C/c1ccccc1Cl)Nc1ccccc1`: 0.0006 mg/mL (≈ 2.33 µM). The same measure for `COc1ccc(NC(=O)CN(C)CC(=O)N(CC(C)C)c2c(N)n(CC(C)C)c(=O)[nH]c2=O)cc1`: > 0.0733 mg/mL; for `CC(=O)c1ccccc1OCC(O)Cn1ccnc1` (stereo not drawn): 0.0382 mg/mL (≈ 147 µM). `O=c1c2ccccc2nc(-c2ccccc2)n1-c1ccccc1` gave a kinetic solubility of 0.0436 mg/mL (≈ 146 µM). This solubility kinetic and that of the compound before are within 1.5-fold of each other. As for `CN(C)P(=O)(NC(=O)c1cccn1C)N(C)C`, the figure is > 0.0387 mg/mL. For `O=C(NCC(=O)N1CCN(c2ccccc2O)CC1)c1ccccc1`, the kinetic solubility worked out at 0.0494 mg/mL (≈ 146 µM). As to `CCN(C(=O)COC(=O)c1cc(OC)ccc1Br)C1CCS(=O)(=O)C1` (stereo not drawn), the kinetic solubility was > 0.0651 mg/mL. As for `CNC(=O)CN1C(=O)NC(Cc2c[nH]c3ccccc23)C1=O` (stereo not drawn), the figure is > 0.045 mg/mL; as for `O/N=C\c1cnc(N2CCN(c3ccccc3)CC2)s1`, 0.0029 mg/mL (≈ 10.1 µM); as for `COc1ccc(C=O)cc1Cn1c(C)cc(C)c(C#N)c1=O`, 0.0006 mg/mL (≈ 2.02 µM). As for `O=C(Cc1ccccc1F)Nc1ccc(S(=O)(=O)N2CCCC2)cc1`, the figure is 0.0449 mg/mL (≈ 124 µM); as for `O=CN(c1ccccc1)c1ccc2ccccc2c1`, 0.0142 mg/mL (≈ 57.4 µM); as for `O=c1[nH]c(/C=C/c2cccc([N+](=O)[O-])c2)c([N+](=O)[O-])c(=O)[nH]1`, 0.0348 mg/mL (≈ 114 µM). The same measure for `O=C1NC(c2ccc(Cl)cc2)Oc2ccccc21` (stereo not drawn): 0.0017 mg/mL (≈ 6.55 µM); for `CC1Cc2ccccc2N1CC(=O)Nc1cccc(S(N)(=O)=O)c1` (stereo not drawn): > 0.0518 mg/mL. The compound `CC(=O)Nc1cccc(NCC(=O)Nc2cc(S(=O)(=O)N3CCCCC3)ccc2Cl)c1` showed a kinetic solubility of 0.0358 mg/mL (≈ 77 µM). As to `CC1=C(C(=O)Nc2ccccc2)C(c2cccs2)NC(=O)N1` (stereo not drawn), the solubility (kinetic) came out at 0.0413 mg/mL (≈ 132 µM). Consider `NC(CO)(CO)COCc1ccccc1`, for which the kinetic solubility is > 0.0317 mg/mL. As for `O=C(COC(=O)Cc1c[nH]c2ccccc12)Nc1ccccc1C(F)(F)F`, the figure is > 0.0565 mg/mL; as for `CCN(CC(=O)NCc1ccc2c(c1)OCO2)S(=O)(=O)c1ccc(F)cc1`, 0.0556 mg/mL (≈ 141 µM); as for `CC(CN1CCOCC1)OC(=O)c1cccc(Cl)c1.Cl` (stereo not drawn), 0.0432 mg/mL.

Turning to `O=Cc1cn(Cc2c(F)cccc2Cl)c2ccccc12`, the solubility (kinetic) is 0.0056 mg/mL (≈ 19.5 µM).

Consider `C=CC[n+]1ccc(/C=C2\C=Cc3cc(C)ccc3N2CC)c2ccccc21.[Br-]`, for which the solubility (kinetic) was > 0.053 mg/mL.

For the compound `COc1ccc(Br)cc1C(=O)Nc1ccccc1N1CCCC1`, the kinetic solubility is < 0.0004 mg/mL.

Compound `CC1c2ccsc2CCN1S(=O)(=O)c1cccs1` (stereo not drawn) returned a solubility (kinetic) of 0.0235 mg/mL (≈ 78.5 µM).
